In the NIST ThermoML archive (doi:10.1016/j.jct.2014.04.022):
Values joined by “and” are separate entries in the source; they are usually repeats but may differ in a detail not shown here. Equal values may be shown once. Numbers after ± are expanded uncertainties.

Assays:
[1] = Liquid, Closed cell (Static) method
[2] = molar heat capacity at constant pressure; details: 101.33 kPa, Liquid, Large sample (1 g) DSC

Q: Which results are given for C[C@H]1CC[C@H]2C[C@@H]1C2(C)C [(-)-trans-pinane]?
A: vapor or sublimation pressure ([1]; 238.15 K): 0.002871 ± 0.00015 kPa and 0.002872 ± 0.00015 kPa; vapor or sublimation pressure ([1]; 243.15 K): 0.004792 ± 0.00021 kPa and 0.004794 ± 0.00021 kPa; vapor or sublimation pressure ([1]; 248.15 K): 0.007832 ± 0.00032 kPa and 0.007836 ± 0.00032 kPa and 0.007837 ± 0.00032 kPa; vapor or sublimation pressure ([1]; 253.15 K): 0.0125 ± 0.0005 kPa; vapor or sublimation pressure ([1]; 258.15 K): 0.01954 ± 0.00062 kPa; vapor or sublimation pressure ([1]; 263.15 K): 0.02999 ± 0.00078 kPa and 0.03 ± 0.00078 kPa; vapor or sublimation pressure ([1]; 268.15 K): 0.04518 ± 0.001 kPa and 0.0452 ± 0.001 kPa; vapor or sublimation pressure ([1]; 273.15 K): 0.06684 ± 0.0014 kPa and 0.06685 ± 0.0014 kPa and 0.06686 ± 0.0014 kPa; vapor or sublimation pressure ([1]; 273.65 K): 0.06947 ± 0.0015 kPa; vapor or sublimation pressure ([1]; 278.15 K): 0.09731 ± 0.0019 kPa and 0.09732 ± 0.0019 kPa; vapor or sublimation pressure ([1]; 283.15 K): 0.1394 ± 0.0024 kPa; vapor or sublimation pressure ([1]; 288.15 K): 0.1968 ± 0.0031 kPa; vapor or sublimation pressure ([1]; 293.15 K): 0.2741 ± 0.004 kPa; vapor or sublimation pressure ([1]; 298.15 K): 0.3766 ± 0.0053 kPa and 0.3767 ± 0.0053 kPa; vapor or sublimation pressure ([1]; 303.15 K): 0.5114 ± 0.007 kPa; vapor or sublimation pressure ([1]; 308.15 K): 0.6862 ± 0.0091 kPa and 0.6863 ± 0.0091 kPa; molar heat capacity at constant pressure ([2]; 258.1 K): 227.6 ± 3.9 J/K/mol; molar heat capacity at constant pressure ([2]; 263.2 K): 230.3 ± 4 J/K/mol; molar heat capacity at constant pressure ([2]; 268.3 K): 233.4 ± 4.1 J/K/mol; molar heat capacity at constant pressure ([2]; 273.4 K): 236.3 ± 4.1 J/K/mol; molar heat capacity at constant pressure ([2]; 278.5 K): 239.3 ± 4.2 J/K/mol; molar heat capacity at constant pressure ([2]; 283.6 K): 242.3 ± 4.2 J/K/mol; molar heat capacity at constant pressure ([2]; 288.7 K): 245.3 ± 4.2 J/K/mol; molar heat capacity at constant pressure ([2]; 293.8 K): 248.3 ± 4.3 J/K/mol; molar heat capacity at constant pressure ([2]; 298.9 K): 251.3 ± 4.3 J/K/mol; molar heat capacity at constant pressure ([2]; 304 K): 254.3 ± 4.4 J/K/mol; molar heat capacity at constant pressure ([2]; 309.1 K): 257.4 ± 4.5 J/K/mol

Q: Which “vapor or sublimation pressure” value ([1]; 238.2 K) does the source give for C=C(C)[C@H]1CC=C(C)CC1 [(R)-1-methyl-4-(1-methylethenyl)cyclohexene] here?
A: 0.001012 ± 0.00011 kPa and 0.001013 ± 0.00011 kPa

Q: What about the “vapor or sublimation pressure” value ([1]; 243.2 K) of the same compound?
A: 0.001755 ± 0.00012 kPa and 0.001756 ± 0.00012 kPa

Q: What about the “vapor or sublimation pressure” value ([1]; 248.15 K) of the same compound?
A: 0.002958 ± 0.00015 kPa and 0.002959 ± 0.00015 kPa and 0.00296 ± 0.00015 kPa

Q: What about the “vapor or sublimation pressure” value ([1]; 253.15 K) of the same compound?
A: 0.00489 ± 0.00021 kPa and 0.004891 ± 0.00021 kPa and 0.004889 ± 0.00021 kPa

Q: What about the “vapor or sublimation pressure” value ([1]; 258.15 K) of the same compound?
A: 0.0079 ± 0.00032 kPa and 0.007901 ± 0.00032 kPa

Q: What about the “vapor or sublimation pressure” value ([1]; 263.15 K) of the same compound?
A: 0.01251 ± 0.0005 kPa and 0.01252 ± 0.0005 kPa

Q: What about the “vapor or sublimation pressure” value ([1]; 268.15 K) of the same compound?
A: 0.01942 ± 0.00061 kPa

Q: What about the “vapor or sublimation pressure” value ([1]; 273.15 K) of the same compound?
A: 0.02957 ± 0.00077 kPa

Q: What about the “vapor or sublimation pressure” value ([1]; 273.65 K) of the same compound?
A: 0.0308 ± 0.00079 kPa and 0.03082 ± 0.00079 kPa

Q: What about the “vapor or sublimation pressure” value ([1]; 278.15 K) of the same compound?
A: 0.04422 ± 0.001 kPa

Q: What about the “vapor or sublimation pressure” value ([1]; 283.15 K) of the same compound?
A: 0.06502 ± 0.0014 kPa and 0.06504 ± 0.0014 kPa and 0.06505 ± 0.0014 kPa

Q: What about the “vapor or sublimation pressure” value ([1]; 288.15 K) of the same compound?
A: 0.09414 ± 0.0019 kPa and 0.09416 ± 0.0019 kPa

Q: And the “vapor or sublimation pressure” value ([1]; 293.15 K)?
A: 0.1343 ± 0.0023 kPa

Q: And the “vapor or sublimation pressure” value ([1]; 298.15 K)?
A: 0.1888 ± 0.003 kPa and 0.1889 ± 0.003 kPa

Q: What about the “vapor or sublimation pressure” value ([1]; 303.15 K) of the same compound?
A: 0.262 ± 0.0039 kPa

Q: And the “vapor or sublimation pressure” value ([1]; 308.15 K)?
A: 0.3589 ± 0.0051 kPa

Q: What does the source list for C=C(C)[C@@H]1CC=C(C)CC1 [(S)-1-methyl-4-(1-methylethenyl)cyclohexene]?
A: vapor or sublimation pressure ([1]; 273.65 K): 0.03073 ± 0.00079 kPa and 0.03074 ± 0.00079 kPa and 0.03075 ± 0.00079 kPa; vapor or sublimation pressure ([1]; 278.15 K): 0.0441 ± 0.001 kPa and 0.04411 ± 0.001 kPa; vapor or sublimation pressure ([1]; 283.15 K): 0.06487 ± 0.0014 kPa and 0.06488 ± 0.0014 kPa and 0.0649 ± 0.0014 kPa; vapor or sublimation pressure ([1]; 288.15 K): 0.09392 ± 0.0019 kPa and 0.09395 ± 0.0019 kPa; vapor or sublimation pressure ([1]; 293.15 K): 0.1339 ± 0.0023 kPa; vapor or sublimation pressure ([1]; 298.15 K): 0.1883 ± 0.003 kPa; vapor or sublimation pressure ([1]; 303.15 K): 0.2609 ± 0.0039 kPa and 0.261 ± 0.0039 kPa; vapor or sublimation pressure ([1]; 308.15 K): 0.3575 ± 0.005 kPa and 0.3576 ± 0.005 kPa; molar heat capacity at constant pressure ([2]; 260.1 K): 240.3 ± 4.2 J/K/mol; molar heat capacity at constant pressure ([2]; 265 K): 242.5 ± 4.2 J/K/mol; molar heat capacity at constant pressure ([2]; 270 K): 244.8 ± 4.2 J/K/mol; molar heat capacity at constant pressure ([2]; 275 K): 247.1 ± 4.2 J/K/mol; molar heat capacity at constant pressure ([2]; 280 K): 249.2 ± 4.3 J/K/mol; molar heat capacity at constant pressure ([2]; 285 K): 251.3 ± 4.3 J/K/mol; molar heat capacity at constant pressure ([2]; 290 K): 253.4 ± 4.4 J/K/mol; molar heat capacity at constant pressure ([2]; 295 K): 255.8 ± 4.4 J/K/mol; molar heat capacity at constant pressure ([2]; 300 K): 257.8 ± 4.5 J/K/mol; molar heat capacity at constant pressure ([2]; 305 K): 260.2 ± 4.5 J/K/mol; molar heat capacity at constant pressure ([2]; 310 K): 262.5 ± 4.6 J/K/mol
